How the values were obtained:
Format in all cases: in vivo
[1] = tested on: goosegrass (Eleusine indica); assay: Test E greenhouse herbicide test, pre- and postemergence; details: Preemergence
From the text: (§1) Seeds of plant species selected from corn (Zea mays), soybean (Glycine max), velvetleaf (Abutilon theophrasti), lambsquarters (Chenopodium album), wild poinsettia (Euphorbia heterophylla), pigweed, palmer (palmer pigweed, Amaranthus palmeri), waterhemp (common waterhemp, Amaranthus rudis), surinam grass (Brachiaria decumbens), crabgrass, large (large crabgrass, Digitaria sanguinalis), crabgrass, Brazilian (Brazilian crabgrass, Digitaria horizontalis), panicum, fall (fall panicum, Panicum dichotomiflorum), foxtail, giant (giant foxtail, Setaria faberii), foxtail, green (green foxtail, Setaria viridis), goosegrass (Eleusine indica), johnsongrass (Sorghum halepense), ragweed (common ragweed, Ambrosia elatior), barnyardgrass (Echinochloa crus-galli), sandbur (southem sandbur, Cenchrus echinatus), arrowleaf sida (Sida rhombifolia), Italian ryegrass (Lolium multiflorum), dayflower (Virginia (VA) dayflower, Commelina virginica), field bindweed (Convolvulus arvensis), momingglory (Ipomoea coccinea), nightshade (eastern black nightshade, Solanum ptycanthum), kochia (Kochia scoparia), nutsedge, yellow (yellow nutsedge, Cyperus esculentus), horseweed (Conyza canadensis), and beggarticks (hairy beggarticks, Bidens pilosa), were planted into a silt loam soil and treated preemergence with test chemicals formulated in a non-phytotoxic solvent mixture which included a surfactant.
(§2) At the same time, plants from these crop and weed species and also waterhemp_RES1, (ALS & Triazine resistant common waterhemp, Amaranthus rudis), and waterhemp_RES2, (ALS & HPPD resistant common waterhemp, Amaranthus rudis) were planted in pots containing Redi-Earth® planting medium (Scotts Company, 14111 Scottslawn Road, Marysville, Ohio 43041) comprising spaghnum peat moss, vermiculite, wetting agent and starter nutrients were treated with postemergence applications of test chemicals formulated in the same manner. Plants ranged in height from 2 to 18 cm for postemergence treatments (1- to 4-leaf stage). Treated plants and controls were maintained in a greenhouse for 14 to 21 d, after which time all species were compared to controls and visually evaluated. Plant response ratings, summarized in Table E, are based on a scale of 0 to 100 where 0 is no effect and 100 is complete control. A dash (-) response means no test result.

[2] = tested on: ragweed (common ragweed, Ambrosia elatior); assay: as above; details: Preemergence
From the text: as §1, §2

[3] = tested on: surinam grass (Brachiaria decumbens); assay: as above; details: Preemergence
From the text: as §1, §2

[4] = tested on: sandbur (southem sandbur, Cenchrus echinatus); assay: as above
From the text: as §1, §2

[5] = tested on: nightshade (eastern black nightshade, Solanum ptycanthum); assay: as above; details: Preemergence
From the text: as §1, §2

[6] = tested on: crabgrass, Brazilian (Brazilian crabgrass, Digitaria horizontalis); assay: as above
From the text: as §1, §2

[7] = tested on: foxtail, giant (giant foxtail, Setaria faberii); assay: as above; details: Preemergence
From the text: as §1, §2

[8] = tested on: field bindweed (Convolvulus arvensis); assay: as above
From the text: as §1, §2

[9] = tested on: beggarticks (hairy beggarticks, Bidens pilosa); assay: as above
From the text: as §1, §2

[10] = tested on: crabgrass, large (large crabgrass, Digitaria sanguinalis); assay: as above; details: Preemergence
From the text: as §1, §2

[11] = tested on: panicum, fall (fall panicum, Panicum dichotomiflorum); assay: as above
From the text: as §1, §2

kochia (Kochia scoparia) = assay: as above; details: Preemergence
From the text: as §1, §2

[12] = tested on: waterhemp (common waterhemp, Amaranthus rudis); assay: as above
From the text: as §1, §2

[13] = tested on: waterhemp_RES2 (ALS & HPPD resistant common waterhemp, Amaranthus rudis); assay: Test E greenhouse herbicide test, postemergence
How it was run: (§3)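 Formulated compounds are applied postemergence to potted waterhemp at 1–4 leaves (2–18 cm high). Plants stay in the greenhouse for 14 to 21 d before visual comparison with controls, and control is scored from 0 (none) to 100 (complete).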

[14] = tested on: waterhemp_RES1 (ALS & Triazine resistant common waterhemp, Amaranthus rudis); assay: Test E greenhouse herbicide test, postemergence
How it was run: as §3

[15] = 62 g ai/ha, scale 0 to 100 (0 no effect, 100 complete control)
[16] = 16 g ai/ha, scale 0 to 100, 0 no effect, 100 complete control
[17] = 31 g ai/ha, scale 0 to 100, 0 no effect, 100 complete control
[18] = 125 g ai/ha, visual, scale 0 no effect to 100 complete control
[19] = 250 g ai/ha, visual, scale 0 no effect to 100 complete control
[20] = 125 g ai/ha, scale 0 to 100 (0 no effect, 100 complete control)
[21] = 62 g ai/ha, Postemergence, scale 0 to 100 (0 no effect, 100 complete control)
[22] = 62 g ai/ha, Preemergence, scale 0 to 100 (0 no effect, 100 complete control)
[23] = 125 g ai/ha, Postemergence, scale 0 to 100 (0 no effect, 100 complete control)
[24] = 125 g ai/ha, Preemergence, scale 0 to 100 (0 no effect, 100 complete control)
[25] = 250 g ai/ha, Postemergence, scale 0 to 100 (0 no effect, 100 complete control)
[26] = Postemergence, 16 g ai/ha, visual, scale 0 no effect to 100 complete control
[27] = Postemergence, 31 g ai/ha, visual, scale 0 no effect to 100 complete control
[28] = Preemergence, 16 g ai/ha, scale 0 to 100, 0 no effect, 100 complete control
[29] = Preemergence, 31 g ai/ha, scale 0 to 100, 0 no effect, 100 complete control
[30] = Preemergence, 250 g ai/ha, visual, scale 0 no effect to 100 complete control
[31] = Preemergence, 125 g ai/ha, visual, scale 0 no effect to 100 complete control
[32] = 16 g ai/ha, visual, scale 0 no effect to 100 complete control
[33] = 31 g ai/ha, visual, scale 0 no effect to 100 complete control
[34] = 250 g ai/ha, scale 0 to 100 (0 no effect, 100 complete control)

For `Cc1cc(C)c2sc(C)c(-c3c(O)c(C)nn(C)c3=O)c2c1` [Compound 2, 5-hydroxy-2,6-dimethyl-4-(2,5,7-trimethylbenzo[b]thien-3-yl)-3(2H)-pyridazinone], the “Plant response rating, Goosegrass” value [1, 15] was 5, the “Plant response rating, Goosegrass” value [1, 16] was 0 and the “Plant response rating, Goosegrass” value [1, 17] was 0. For the same compound, the “Plant response rating, Goosegrass” value [1, 18] was 25, the “Plant response rating, Goosegrass” value [1, 19] was 25 and the “Plant response rating, Ragweed” value [2, 15] was 75. For the same compound, the “Plant response rating, Ragweed” value [2, 20] was 98, the “Plant response rating, Ragweed” value [2, 16] was 20 and the “Plant response rating, Ragweed” value [2, 17] was 35. The “Plant response rating, Ragweed” value [2, 19] was 98, the “Plant response rating, Surinam Grass” value [3, 15] was 75 and the “Plant response rating, Surinam Grass” value [3, 20] was 90. The “Plant response rating, Surinam Grass” value [3, 16] was 5, the “Plant response rating, Surinam Grass” value [3, 17] was 35 and the “Plant response rating, Surinam Grass” value [3, 19] was 95. For the same compound, the “Plant response rating, Sandbur” value [4, 21] was 15, the “Plant response rating, Sandbur” value [4, 22] was 15 and the “Plant response rating, Sandbur” value [4, 23] was 20. The “Plant response rating, Sandbur” value [4, 24] was 70, the “Plant response rating, Sandbur” value [4, 25] was 30 and the “Plant response rating, Sandbur” value [4, 26] was 5. The “Plant response rating, Sandbur” value [4, 27] was 10, the “Plant response rating, Sandbur” value [4, 28] was 0 and the “Plant response rating, Sandbur” value [4, 29] was 15. The “Plant response rating, Sandbur” value [4, 30] was 75, the “Plant response rating, Nightshade” value [5, 15] was 98 and the “Plant response rating, Nightshade” value [5, 20] was 98. The “Plant response rating, Nightshade” value [5, 16] was 35, the “Plant response rating, Nightshade” value [5, 17] was 75 and the “Plant response rating, Nightshade” value [5, 19] was 100. For the same compound, the “Plant response rating, Crabgrass, Brazil” value [6, 21] was 0, the “Plant response rating, Crabgrass, Brazil” value [6, 22] was 60 and the “Plant response rating, Crabgrass, Brazil” value [6, 23] was 10. The “Plant response rating, Crabgrass, Brazil” value [6, 25] was 15, the “Plant response rating, Crabgrass, Brazil” value [6, 26] was 0 and the “Plant response rating, Crabgrass, Brazil” value [6, 27] was 10. The “Plant response rating, Crabgrass, Brazil” value [6, 28] was 0, the “Plant response rating, Crabgrass, Brazil” value [6, 29] was 35 and the “Plant response rating, Crabgrass, Brazil” value [6, 31] was 50. The “Plant response rating, Crabgrass, Brazil” value [6, 30] was 100, the “Plant response rating, Foxtail, Giant” value [7, 15] was 95 and the “Plant response rating, Foxtail, Giant” value [7, 16] was 40. The “Plant response rating, Foxtail, Giant” value [7, 17] was 75, the “Plant response rating, Foxtail, Giant” value [7, 18] was 98 and the “Plant response rating, Foxtail, Giant” value [7, 19] was 98. The “Plant response rating, Field Bindweed” value [8, 21] was 65, the “Plant response rating, Field Bindweed” value [8, 22] was 15 and the “Plant response rating, Field Bindweed” value [8, 23] was 75. For the same compound, the “Plant response rating, Field Bindweed” value [8, 25] was 80, the “Plant response rating, Field Bindweed” value [8, 26] was 60 and the “Plant response rating, Field Bindweed” value [8, 27] was 60. The “Plant response rating, Field Bindweed” value [8, 28] was 0, the “Plant response rating, Field Bindweed” value [8, 29] was 0 and the “Plant response rating, Field Bindweed” value [8, 31] was 35. For the same compound, the “Plant response rating, Field Bindweed” value [8, 30] was 70, the “Plant response rating, Beggarticks” value [9, 21] was 100 and the “Plant response rating, Beggarticks” value [9, 22] was 100. For the same compound, the “Plant response rating, Beggarticks” value [9, 23] was 100, the “Plant response rating, Beggarticks” value [9, 25] was 100 and the “Plant response rating, Beggarticks” value [9, 26] was 85. The “Plant response rating, Beggarticks” value [9, 27] was 95, the “Plant response rating, Beggarticks” value [9, 28] was 90 and the “Plant response rating, Beggarticks” value [9, 29] was 100. The “Plant response rating, Beggarticks” value [9, 31] was 100, the “Plant response rating, Beggarticks” value [9, 30] was 100 and the “Plant response rating, Crabgrass, Large” value [10, 15] was 0. The “Plant response rating, Crabgrass, Large” value [10, 16] was 0, the “Plant response rating, Crabgrass, Large” value [10, 17] was 0 and the “Plant response rating, Crabgrass, Large” value [10, 18] was 30. The “Plant response rating, Crabgrass, Large” value [10, 19] was 60, the “Plant response rating, Panicum, Fall” value [11, 21] was 70 and the “Plant response rating, Panicum, Fall” value [11, 22] was 95. For the same compound, the “Plant response rating, Panicum, Fall” value [11, 23] was 85, the “Plant response rating, Panicum, Fall” value [11, 24] was 98 and the “Plant response rating, Panicum, Fall” value [11, 25] was 90. The “Plant response rating, Panicum, Fall” value [11, 26] was 60, the “Plant response rating, Panicum, Fall” value [11, 27] was 70 and the “Plant response rating, Panicum, Fall” value [11, 28] was 75. The “Plant response rating, Panicum, Fall” value [11, 29] was 85, the “Plant response rating, Panicum, Fall” value [11, 30] was 100 and the “Plant response rating, Kochia” value (kochia (Kochia scoparia); [15]) was 0. For the same compound, the “Plant response rating, Kochia” value (kochia (Kochia scoparia); [16]) was 0, the “Plant response rating, Kochia” value (kochia (Kochia scoparia); [17]) was 0 and the “Plant response rating, Kochia” value (kochia (Kochia scoparia); [18]) was 0. The “Plant response rating, Kochia” value (kochia (Kochia scoparia); [19]) was 40, the “Plant response rating, Waterhemp” value [12, 21] was 75 and the “Plant response rating, Waterhemp” value [12, 22] was 80. The “Plant response rating, Waterhemp” value [12, 23] was 75, the “Plant response rating, Waterhemp” value [12, 24] was 85 and the “Plant response rating, Waterhemp” value [12, 25] was 90. For the same compound, the “Plant response rating, Waterhemp” value [12, 26] was 70, the “Plant response rating, Waterhemp” value [12, 27] was 70 and the “Plant response rating, Waterhemp” value [12, 28] was 65. For the same compound, the “Plant response rating, Waterhemp” value [12, 29] was 65, the “Plant response rating, Waterhemp” value [12, 30] was 98 and the “Plant response rating, Waterhemp_RES2” value [13, 32] was 0. The “Plant response rating, Waterhemp_RES2” value [13, 33] was 0, the “Plant response rating, Waterhemp_RES2” value [13, 15] was 5 and the “Plant response rating, Waterhemp_RES2” value [13, 20] was 5. The “Plant response rating, Waterhemp_RES2” value [13, 34] was 60, the “Plant response rating, Waterhemp_RES1” value [14, 32] was 65 and the “Plant response rating, Waterhemp_RES1” value [14, 33] was 70. For the same compound, the “Plant response rating, Waterhemp_RES1” value [14, 15] was 70, the “Plant response rating, Waterhemp_RES1” value [14, 20] was 70 and the “Plant response rating, Waterhemp_RES1” value [14, 34] was 100.

— US10597388B2, “Pyridazinone herbicides” (FMC CORPORATION, priority 2014, dated 2020)
